Among the test systems are HCT-15 colon; HOP-92 NSCLC; HS 578T breast; M14 melanoma; MDA-MB-435; MOLT-4 leukemia; SK-OV-3 ovarian; SNB-19 CNS; TK-10 renal; UACC-62 melanoma.
Common to all, as to assay: NCI-60 cell line screen, 48 h

Where “and” joins values, the source holds several entries; their conditions need not be identical. Equal values may be shown once.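 Compound exposure: 48 hours, 5 concentrations, 96-well plates. GI50 marks 50% less growth. TGI denotes the concentration required for complete inhibition of growth.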 Some results are limits rather than exact numbers.

On to `Clc1ccc(Nc2ncnc3ccccc23)cc1`, for which the GI50 was 25.2 µM in the assay with HCT-15 colon; 13.8 µM in the assay on HOP-92 NSCLC; 37.9 µM with HS 578T breast; 54.9 µM with M14 melanoma; 42.2 µM with MDA-MB-435; 20.6 µM in the assay on MOLT-4 leukemia. Further, the GI50 in the assay with SK-OV-3 ovarian is 91.1 µM; in the assay on SNB-19 CNS, greater than 100 µM; with TK-10 renal, 2.79 µM; in the assay on UACC-62 melanoma, 78 µM. The TGI was greater than 100 µM with HCT-15 colon; 73.2 µM with HOP-92 NSCLC; greater than 100 µM with HS 578T breast; greater than 100 µM in the assay with M14 melanoma; greater than 100 µM in the assay on MDA-MB-435; 59.5 µM with MOLT-4 leukemia. The TGI is greater than 100 µM with SK-OV-3 ovarian, greater than 100 µM in the assay with SNB-19 CNS, 31 µM with TK-10 renal and greater than 100 µM with UACC-62 melanoma.

`O=C1NC(=N[C@@H]2C[C@H]2c2ccccc2)S/C1=C\c1ccc2ncccc2c1`: the GI50 with HCT-15 colon was 0.74 µM; with HOP-92 NSCLC it was 3.68 µM; with HS 578T breast, 1.25 µM; with M14 melanoma it was 1.34 µM; in the assay with MDA-MB-435, 0.688 µM; with MOLT-4 leukemia, 4.29 µM. The GI50 in the assay with SK-OV-3 ovarian was 1.06 µM; in the assay with SNB-19 CNS, 2.98 µM; with TK-10 renal, 0.899 µM; in the assay on UACC-62 melanoma, 1.2 µM. In addition, the TGI in the assay with HCT-15 colon is greater than 25 µM; in the assay with HOP-92 NSCLC, 10.1 µM; in the assay with HS 578T breast, 11.6 µM; in the assay with M14 melanoma it was greater than 25 µM; in the assay with MDA-MB-435, 2.85 µM; with MOLT-4 leukemia, 21.8 µM. In addition, the TGI in the assay with SK-OV-3 ovarian is 4.06 µM; with SNB-19 CNS, 24.8 µM; with TK-10 renal it was 5.58 µM; in the assay with UACC-62 melanoma it was 5.61 µM.

Regarding `COc1ccc2c(c1)OC(N)=C(C#N)C2c1ccc(F)c(F)c1` (centres undefined), the GI50 in the assay on HCT-15 colon was 0.348 µM; with HOP-92 NSCLC it was 6.53 µM; with HS 578T breast it was 0.426 µM; with M14 melanoma it was 0.325 µM; with MDA-MB-435, 0.133 µM; with MOLT-4 leukemia, 0.55 µM. For the same compound, the GI50 in the assay on SK-OV-3 ovarian is 0.495 µM; with SNB-19 CNS it was 0.58 µM; in the assay with TK-10 renal it was 14.7 µM; in the assay with UACC-62 melanoma, 0.418 µM. For the same compound, the TGI in the assay with HCT-15 colon was greater than 59 µM; with HOP-92 NSCLC, 69.3 µM; in the assay on HS 578T breast it was greater than 46.3 µM; in the assay with M14 melanoma, greater than 100 µM; in the assay on MDA-MB-435 it was 0.664 µM; with MOLT-4 leukemia, greater than 100 µM. In addition, the TGI is greater than 64.1 µM in the assay with SK-OV-3 ovarian, greater than 100 µM with SNB-19 CNS, greater than 100 µM in the assay with TK-10 renal and greater than 100 µM in the assay on UACC-62 melanoma.

As to `N#CC1(C#N)C2C=CC(C3CC=CC32)C1(C#N)C#N` (centres undefined), the GI50 in the assay on HCT-15 colon is 13.2 µM; with M14 melanoma, 8.72 µM; with MDA-MB-435, 9.78 µM; with MOLT-4 leukemia it was 1.2 µM. The TGI in the assay with HCT-15 colon is 4.17 µM and 35.9 µM; in the assay with HOP-92 NSCLC it was 14.8 µM; in the assay with HS 578T breast, greater than 50 µM; with M14 melanoma, 3.74 µM and 16 µM; with MDA-MB-435, 18.8 µM; with MOLT-4 leukemia, 3.5 µM and 3.55 µM. In addition, the TGI with SK-OV-3 ovarian was greater than 50 µM; in the assay on SNB-19 CNS it was greater than 50 µM; in the assay with TK-10 renal, 3.61 µM; in the assay with UACC-62 melanoma, 16.9 µM.

Turning to `CN1CCN(C(=O)OCc2nc3c(N4CCOCC4)nc(-c4ccccc4)nc3n2C)CC1`, the GI50 in the assay with HCT-15 colon is 0.317 µM; in the assay with HOP-92 NSCLC, 0.765 µM; in the assay on HS 578T breast, 1.23 µM; in the assay with M14 melanoma, 1.07 µM; with MDA-MB-435 it was 1.06 µM; in the assay on MOLT-4 leukemia it was 0.526 µM. Moreover, the GI50 in the assay on SK-OV-3 ovarian is 2.97 µM; in the assay with SNB-19 CNS, 1.45 µM; in the assay on TK-10 renal it was 1.67 µM; in the assay on UACC-62 melanoma it was 1.25 µM. Besides, the TGI amounted to 1.26 µM in the assay on HCT-15 colon; 2.24 µM in the assay on HOP-92 NSCLC; 3.93 µM in the assay on HS 578T breast; 2.44 µM in the assay on M14 melanoma; 2.39 µM with MDA-MB-435; 3.12 µM in the assay on MOLT-4 leukemia. Also, the TGI in the assay on SK-OV-3 ovarian was 9.13 µM; with SNB-19 CNS, 2.78 µM; with TK-10 renal, 3.12 µM; in the assay on UACC-62 melanoma it was 2.52 µM.

For the compound `CC(C)c1ccc2c(c1)CCC1C(C)(CN)CCCC21C` (centres undefined), the TGI in the assay on HCT-15 colon stood at 3.17 µM; in the assay with HOP-92 NSCLC, 2.97 µM; in the assay on HS 578T breast it was 3.57 µM; in the assay with M14 melanoma, 3.1 µM; in the assay with MDA-MB-435 it was 2.89 µM; in the assay with MOLT-4 leukemia, 3.61 µM. Besides, the TGI in the assay with SK-OV-3 ovarian stood at 3.98 µM; with SNB-19 CNS, 2.96 µM; in the assay on TK-10 renal, 3.08 µM; in the assay on UACC-62 melanoma, 3.14 µM.

On to `NS(=O)(=O)c1ccc(N=Nc2c(O)[nH]c3cccc(CCc4ccncc4)c23)cc1`, for which the GI50 with HCT-15 colon, with HOP-92 NSCLC, with HS 578T breast, in the assay on M14 melanoma, in the assay with MDA-MB-435 and in the assay with MOLT-4 leukemia was greater than 25 µM in each case. Also, the GI50 in the assay on SK-OV-3 ovarian, in the assay on SNB-19 CNS, in the assay with TK-10 renal and in the assay with UACC-62 melanoma was greater than 25 µM in each case. Also, the TGI in the assay on HCT-15 colon, with HOP-92 NSCLC, with HS 578T breast, with M14 melanoma, with MDA-MB-435 and in the assay with MOLT-4 leukemia was greater than 25 µM in each case. Further, the TGI in the assay on SK-OV-3 ovarian, with SNB-19 CNS, in the assay on TK-10 renal and with UACC-62 melanoma was greater than 25 µM throughout.

For the compound `CCCC(c1cc(C(C)(C)C)c(O)cc1C)c1cc(C(C)(C)C)c(O)cc1C`, the TGI with HCT-15 colon is 11.4 µM; in the assay with HOP-92 NSCLC it was 22.5 µM; in the assay with HS 578T breast, 9.79 µM; with M14 melanoma it was 4.51 µM; with MDA-MB-435, 7.18 µM; in the assay with MOLT-4 leukemia, 5.41 µM. The TGI is 12.4 µM in the assay on SK-OV-3 ovarian, 16.9 µM in the assay with SNB-19 CNS, 9.55 µM in the assay with TK-10 renal and 4.95 µM in the assay on UACC-62 melanoma.

Values taken from PubChem BioAssay (NCI).
